From patent US9662322B2 (TEVA PHARMACEUTICAL INDUSTRIES, LTD., priority 2014, dated 2017)

Legend:
patients with RRMS = conditions: pooled ALLEGRO and BRAVO, all patients, 0.6 mg QD vs PBO; cited from earlier work
[1] = test system: subjects with relapsing remitting multiple sclerosis (RRMS); assay: ALLEGRO Phase III trial: MRI endpoints; format: in vivo, human
Experimental: MRI related secondary endpoints were the cumulative number of GdE lesions at months 12 and 24; and the cumulative number of new T2 lesions (relative to previous scan) at months 12 and 24; MRI exploratory endpoints included percent change of brain volume using SIENA.
Additional MRI methodological details are as follows: In all patients, MRI scans were performed at 0, 12, and 24 months. Before a site could enroll study participants they were required to image a volunteer patient with definite MS twice with repositioning according to a strict study imaging protocol using scanners with a minimum field strength of 1.5 T. Fast/turbo spin echo (repetition time [TR]=2200-3500 ms, echo time [TE]=14-50/90-120 ms, echo train length=2-7, slice thickness=3 mm, and contiguous axial slices=44) sequences were used to obtain proton density and T2-weighted images. High resolution pre-contrast 3D T1-weighted sequences (TR=8-15 ms, TE=3-5 ms, inversion time=1.1 s, number of slices 160, slice thickness 1.2 mm, flip angle [FA]=10-15, orientation sagittal) were acquired for quantification of brain atrophy. Finally, T1-weighted images (1.5 T scanners: conventional spin echo sequence; TR=600-650 ms, TE=10-20 ms, slice thickness=3 mm, and contiguous axial slices=44; 3.0 T scanners: 3D sequence; TR=5-9 ms, TE=2-5 ms, FA=15, slice thickness=3 mm, and contiguous axial slices=44) were obtained 5 minutes after injection of 0.1 mmol/kg of gadolinium. A series of axial, coronal, and sagittal images was obtained to create an axial reference scan for subsequent careful repositioning of each patient at the follow-up session. Axial slices were positioned to run parallel to a line joining the most inferioanterior and inferioposterior parts of the corpus callosum.
Image quality was reviewed at the MRI-AC using predetermined criteria. The identification of GdE and T2-hyperintense lesions was done by consensus of two experienced observers. The number of total and new GdE lesions and new/enlarging T2-hyperintense lesions were counted. The identified lesions were then outlined by trained technicians using a semiautomated segmentation technique based on local thresholding (Jim 4.0; Xinapse System, Leicester, UK) and lesion volumes were calculated automatically. Percentage brain volume changes and cross-sectional normalized brain volumes were measured on […] T1-weighted images, with Structural Image Evaluation of Normalized Atrophy (SIENA) software and a cross-sectional method (SIENAX) (available from the FMRIB Software Library, Oxford University, Oxford, UK; http://www.fmrib.ox.ac.uk/analysis/research/siena/siena).
Analyses of the secondary MRI endpoints of the cumulative number of GdE and new/enlarging T2 lesions at 12 and 24 months involved a baseline-adjusted negative binomial regression with an “offset” employing the log of the relative exposure to adjust for early-terminated patients. The model included as covariates the number of enhancing lesions at baseline, and country or geographical region. In the case of new/enlarging T2 lesion analysis, the baseline T2 lesion volume was also added. The MRI secondary endpoints analyses were tested simultaneously with an overall type I error of 5%, using the Hochberg's step-up modification to Bonferroni's method to the two P-values obtained from the analyses of these two endpoints. The analysis of the brain atrophy endpoint involved a baseline-adjusted analysis of covariance (ANCOVA). The covariates were the number of GdE lesions at baseline and the country or region. The exploratory endpoints were all analyzed at a significance level of 5%.
Secondary endpoints of the ALLEGRO trial included disease activity as measured by MRI, including counts of Gadolinium enhancing T1 lesions and new-T2 hyperintense lesions. […] Conventional MRI scans for new T1 hypointense lesions, and brain volume using SIENA were performed at baseline, 12 and 24 months. […]

In the case of `CCN(C(=O)c1c(O)c2c(Cl)cccc2n(C)c1=O)c1ccccc1` [Laquinimod, laquinimod], the “Reduction in 6-month confirmed disability progression (CDP)” value (patients with RRMS) is given as 46%, the “BA at month 12, Effect (reduction in brain atrophy)” value ([1]; baseline to 12 months, vs placebo) is given as 53% reduction and the “Hypointense T1 volume, BL to M 24” value ([1]; change baseline to month 24) is given as 7%. For the same compound, the “Hypointense T1 volume month 0” value ([1]; month 0 (baseline)) was 2.65, the “T2 volume month 0” value ([1]; month 0 (baseline)) was 7.27 and the “% BV change by previous medications: naïve” value ([1]; post-hoc) was −0.82%. For the same compound, the “GdE lesion free M 12” value ([1]; post-hoc) was 69%, the “% BV change M 24, GdE = 0, Effect” value ([1]; post-hoc, vs placebo) was 30% reduction and the “% BV change M 24, GdE > 0, Effect” value ([1]; post-hoc, vs placebo) was 37% reduction. For the same compound, the “% BV change by previous medications: naïve, Effect” value ([1]; post-hoc, vs placebo) was 38% reduction, the “% BV change by previous medications: not naive, Effect” value ([1]; post-hoc, vs placebo) was 23% reduction and the “BA for pts with all scans: Change BL to M 12, Effect” value ([1]; post-hoc, vs placebo) was 60%. The “BA for pts with all scans: Change BL to M 24, Effect” value ([1]; post-hoc, vs placebo) was 57%, the “Cum # T1 GdE by previous medications: naïve, Effect” value ([1]; post-hoc, vs placebo) was 42% reduction and the “Cum # T1 GdE by previous medications: not naive, Effect” value ([1]; post-hoc, vs placebo) was 32% reduction. For the same compound, the “Cum New T2 by previous medications: naïve, Effect” value ([1]; post-hoc, vs placebo) was 33% reduction, the “Cum New T2 by previous medications: not naive, Effect” value ([1]; post-hoc, vs placebo) was 24% reduction and the “GdE counts M 12, Effect” value ([1]; post-hoc, vs placebo) was 36% reduction. For the same compound, the “GdE counts M 24, Effect” value ([1]; post-hoc, vs placebo) was 39% reduction, the “GdE lesion free M 12, Effect” value ([1]; post-hoc, vs placebo) was 49% odds and the “GdE lesion free M 24, Effect” value ([1]; post-hoc, vs placebo) was 72% odds. For the same compound, the “GdE volume M 12, Effect” value ([1]; post-hoc, vs placebo) was 4.5%, the “GdE volume M 24, Effect” value ([1]; post-hoc, vs placebo) was 4.7% and the “New-T1 Hypointense Lesions M 12, Effect” value ([1]; post-hoc, vs placebo) was 27% reduction. For the same compound, the “New-T1 Hypointense Lesions M 24, Effect” value ([1]; post-hoc, vs placebo) was 32% reduction, the “T1 Hypointense Lesion free M 12, Effect” value ([1]; post-hoc, vs placebo) was 28% odds and the “T1 Hypointense Lesion free M 24, Effect” value ([1]; post-hoc, vs placebo) was 47% odds. The “T1 hypointense by previous medications: naïve, Effect” value ([1]; post-hoc, vs placebo) was 28% reduction, the “T1 hypointense by previous medications: not naive, Effect” value ([1]; post-hoc, vs placebo) was 25% reduction and the “T2 lesion free M 12, Effect” value ([1]; post-hoc, vs placebo) was 39% odds. For the same compound, the “T2 lesion free M 24, Effect” value ([1]; post-hoc, vs placebo) was 40% odds, the “Average MTR of T2 visible lesions, difference” value ([1]; vs placebo) was 0.330 and the “Cumulative new Hypointense T1 months 12 + 24, Effect” value ([1]; vs placebo) was 27% reduction. The “Cumulative number of GdE lesions at months 12 and 24, Effect” value ([1]; vs placebo) was 37 % reduction, the “Cumulative number of new/enlarging T2 lesions at 12 and 24 months, Effect” value ([1]; vs placebo) was 30% reduction and the “Hypointense T1 volume month 12, Effect” value ([1]; vs placebo) was ~1%. For the same compound, the “Hypointense T1 volume month 24, Effect” value ([1]; vs placebo) was ~1%, the “T2 volume month 12, Effect” value ([1]; vs placebo) was 5% and the “T2 volume month 24, Effect” value ([1]; vs placebo) was 5%. For the same compound, the “Cumulative number of new/enlarging T2 lesions at 12 and 24 months, Effect” value ([1]; vs placebo, listed as laquinimod) was 30 % reduction.
